This note sets out measurements from ChEMBL document CHEMBL1131804, “Synthesis of delta4-beta-D-glucopyranosiduronic acids as mimetics of 2,3-unsaturated sialic acids for sialidase inhibition” (Bioorg Med Chem Lett, 1999).

Assay [1] relates to Crassostrea virginica. Briefly: Inhibitory activity against KDN-sialidase from Crassostrea virginica at a concentration of 1 mM.
The nature of assay [2]: Inhibitory activity against influenza virus A(N9) sialidase.
Assay [3] in a line: Inhibitory activity against Vibrio cholerae sialidase.
Assay [4] concerns Clostridium perfringens. Briefly: Inhibitory activity against sialidase from Clostridium perfringens at a concentration of 0.1 mM.
In assay [5] the test system is influenza virus a. Briefly: Inhibitory activity against influenza virus A(N9) sialidase at a concentration of 0.1 mM.
In assay [6] the test system is Vibrio cholerae. As to the kind of experiment: Inhibitory activity against Vibrio cholerae sialidase at a concentration of 0.1 mM.
Assay [7] concerns Salmonella enterica subsp. enterica serovar Typhimurium. Briefly: Inhibitory activity sialidase from Salmonella Typhimurium at a concentration of 0.1 mM.

`O=C(O)C1=CC(O)C(O)C([C@H](O)[C@H](O)CO)O1` (stereo partly specified) had an inhibition in assay [1] of 95%.
Take `CC(C)OC1OC(C(=O)O)=CC(O)C1O` (stereo unspecified): the inhibition in assay [1] stood at 6%.
As to `CC(=O)N[C@H]1[C@H]([C@H](O)[C@H](O)CO)OC(C(=O)O)=C[C@@H]1O` [NEU5AC2EN], the inhibition in assay [1] was found to be 20%. Further, the Ki in assay [2] is 1.3 µM; in assay [3], 3.4 µM.
`CC(=O)NC1C(O)C=C(C(=O)O)OC1OC(C)C` (stereo unspecified): the inhibition in assay [4] was found to be 24%; in assay [5], 100%; in assay [6], 25%; in assay [7], 24%. Also, the Ki in assay [2] was 2.7 µM; in assay [3], 120 µM.
